Reference: publication PMC11329505 (Communications Chemistry, 2024)

Columns and labels:
AGAL3 = molecular target: T1, AGAL3 (Turicibacter bilis, UniProt A0A9Q9CI38); assay: pNP-αGal colorimetric assay with additive; type: biochemical; conditions: 5 mM maltose; pNP-αGal substrate
T1 sequence (A0A9Q9CI38 1-743): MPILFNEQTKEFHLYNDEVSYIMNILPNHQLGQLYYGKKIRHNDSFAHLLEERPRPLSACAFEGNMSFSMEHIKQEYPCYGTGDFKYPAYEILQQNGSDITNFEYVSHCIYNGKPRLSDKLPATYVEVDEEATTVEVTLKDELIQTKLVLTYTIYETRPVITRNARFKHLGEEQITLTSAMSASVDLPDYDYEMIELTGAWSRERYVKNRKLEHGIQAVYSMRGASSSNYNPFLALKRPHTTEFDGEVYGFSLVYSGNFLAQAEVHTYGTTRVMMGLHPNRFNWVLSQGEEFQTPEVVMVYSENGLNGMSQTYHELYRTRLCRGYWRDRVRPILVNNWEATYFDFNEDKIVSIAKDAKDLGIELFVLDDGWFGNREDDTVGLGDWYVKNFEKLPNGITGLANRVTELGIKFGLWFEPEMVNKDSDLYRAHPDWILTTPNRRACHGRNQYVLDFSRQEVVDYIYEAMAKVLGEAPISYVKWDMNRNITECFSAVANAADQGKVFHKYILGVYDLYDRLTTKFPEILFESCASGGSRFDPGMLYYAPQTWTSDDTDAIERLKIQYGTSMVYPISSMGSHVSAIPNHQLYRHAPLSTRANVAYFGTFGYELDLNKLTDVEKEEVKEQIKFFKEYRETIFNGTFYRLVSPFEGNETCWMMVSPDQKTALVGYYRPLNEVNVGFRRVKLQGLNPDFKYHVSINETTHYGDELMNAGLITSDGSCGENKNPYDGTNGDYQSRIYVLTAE

AGAL5 = molecular target: T2, AGAL5 (Blautia pseudococcoides, UniProt A0A1C7IHX3); assay: pNP-αGal colorimetric assay with additive; type: biochemical; conditions: 5 mM maltose; pNP-αGal substrate
T2 sequence (A0A1C7IHX3 1-763): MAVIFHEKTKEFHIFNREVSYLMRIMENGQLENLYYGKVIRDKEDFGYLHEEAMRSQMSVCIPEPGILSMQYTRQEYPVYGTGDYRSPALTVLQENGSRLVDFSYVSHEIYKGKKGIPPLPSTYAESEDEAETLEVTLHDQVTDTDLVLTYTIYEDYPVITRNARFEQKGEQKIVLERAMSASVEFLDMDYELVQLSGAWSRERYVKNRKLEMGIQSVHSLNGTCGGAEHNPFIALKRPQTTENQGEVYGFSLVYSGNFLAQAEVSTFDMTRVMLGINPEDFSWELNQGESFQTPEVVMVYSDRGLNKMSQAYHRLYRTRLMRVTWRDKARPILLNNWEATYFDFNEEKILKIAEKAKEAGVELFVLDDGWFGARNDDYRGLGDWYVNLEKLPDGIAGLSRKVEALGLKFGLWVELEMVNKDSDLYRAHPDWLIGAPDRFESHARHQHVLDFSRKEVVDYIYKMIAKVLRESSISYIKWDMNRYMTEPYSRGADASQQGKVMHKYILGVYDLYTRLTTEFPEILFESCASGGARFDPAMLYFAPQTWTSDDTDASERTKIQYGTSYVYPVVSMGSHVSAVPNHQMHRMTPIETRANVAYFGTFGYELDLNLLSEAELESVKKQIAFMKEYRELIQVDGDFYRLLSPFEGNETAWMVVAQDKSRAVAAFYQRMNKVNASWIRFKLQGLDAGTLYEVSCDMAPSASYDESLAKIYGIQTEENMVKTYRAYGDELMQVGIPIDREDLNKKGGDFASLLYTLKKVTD

## OC[C@H]1O[C@H](O[C@H]2[C@H](O)[C@@H](O)C(O)O[C@@H]2CO)[C@H](O)[C@@H](O)[C@@H]1O (some centres unmarked) [maltose]
AGAL3
  inhibition at 5 mM: maltose had an inhibitory effect on AGAL3 and AGAL5
AGAL5
  inhibition at 5 mM: maltose had an inhibitory effect on AGAL3 and AGAL5
